Results reported in US20230357334A1, “COMPOSITION OF DRUG AND WILD-TYPE CELL-PENETRATING PEPTIDE DERIVATIVE” (ALEPHOSON BIOPHARMACEUTICALS LTD., priority 2020, published 2023).
Entries after “also recorded” stand apart in the source; their conditions may differ. Read-outs that look alike come from different tables or passages of the source.

What was measured:
[1] = rabbit, in vivo
Experimental: Firstly, eye drops were prepared. Polypeptide/Aflibercept composition was prepared by diluting Aflibercept (40 mg/mL) to 20 mg/mL with a commercially available Aflibercept injection solvent, dissolving polypeptide 289WP to 6.16 mg/mL with this solution, and storing at 4° C. for use. Before being used, the composition was incubated for at least 24 h at 4° C., and kept standing at room temperature for 1 h.
Next, the administration and sampling protocol were determined. Healthy male rabbits each about 1 kg were selected, eyes of which were ensured to be normal by ophthalmic examination before the experiment. The experimental process follows the ethical specifications of experimental animals. Each eye of the rabbit was dripped with 30 μL of different composition solutions containing 600 μg of Aflibercept per eye. Ocular tissue samples were taken at 1 h after administration.
Subsequently, the Aflibercept concentrations in tissues were determined. The ELISA plate coated with antigen (hVEGF-A165) was prepared, as well as the extracted tissues (total protein extraction solution of blood plasma, aqueous humor, vitreous humor and retina). […]
The concentrations of Aflibercept in tissues were measured at 1 h after administration. Significant differences were analyzed by 2-tailed unpaired t-test (^nsp>0.05, *p<0.05).

ARPE-19 cells [2] = assay: Endocytosis mechanism of 289WP/Ranibizumab composition (temperature, endocytosis inhibitors), ARPE-19; format: cell-based, human; conditions: Mixture without inhibition = 100%
Experimental: (§1) The uptake amount of 289WP-FAM or Cy5-Rani in the Mixture without inhibition is used as control (100%). Significant differences were analyzed by 1-tailed ANOVA, corrected by Dunnett's test (n=3, ^nsp>0.05, *p<0.05, **p<0.01, ***p<0.001).

HCECs [3] = assay: Endocytosis mechanism of 289WP/Ranibizumab composition (temperature, endocytosis inhibitors), HCECs; format: cell-based, human; conditions: Mixture without inhibition = 100%
Experimental: as §1

ARPE-19 cells [4] = assay: Cell uptake of Ranibizumab mediated by different polypeptides, ARPE-19; format: cell-based, human; conditions: for increase of mean fluorescence intensity compared with free antibodies: 10 μM polypeptide + 1 μM Cy5-Rani (10:1), freshly prepared, 2 h, 37° C.; for mean fluorescence intensity of cells, comparison between polypeptides: composition solutions stored at 4° C. for 7 days; for cell uptake of Ranibizumab mediated by polypeptide, comparison between polypeptides: molar ratio 10:1, freshly prepared
Experimental: (§2) Well-grown cells HCECs, ARPE-19 and HUVECs were taken and plated respectively in a 24-well plate at 1×10^4 cells/well. After incubating for 24 h, the culture solution was discarded, and solutions of different compositions of polypeptide/Cy5-Rani mixture (containing 1 μM of Cy5-Rani) were added and incubated for 2 h at 37° C. The drug solution was then discarded, and the cells were washed 3 times with 10 mM PBS (containing 0.02 mg/mL heparin sodium), collected, and resuspended in 10 mM PBS. Flow cytometer was used for detecting positive cell rate and mean fluorescence intensity, with detecting channel excitation wavelength of 638 nm and emission wavelength of 660 nm. […] 10 μM of different polypeptides were mixed with 1 μM Cy5-Rani, respectively, and incubated at 4° C. for 24 h to obtain composition solutions. Before the detection, the composition solutions were incubated at 37° C. with different cells for 2 h, or the composition solutions were stored at 4° C. for 7 days and then incubated with the cells. Flow cytometer was used for detecting the mean fluorescence intensity values of cells (Ex 638 nm/Em 660 nm).

HCECs [5] = assay: Cell uptake of Ranibizumab mediated by different polypeptides, HCECs; format: cell-based, human; conditions: for increase of mean fluorescence intensity compared with free antibodies: 10 μM polypeptide + 1 μM Cy5-Rani (10:1), freshly prepared, 2 h, 37° C.; for mean fluorescence intensity of cells, comparison between polypeptides: composition solutions stored at 4° C. for 7 days; for cell uptake of Ranibizumab mediated by polypeptide, comparison between polypeptides: molar ratio 10:1, freshly prepared
Experimental: as §2

[6] = test system: HCECs, ARPE-19 and HUVECs; assay: Cell uptake of polypeptide/Ranibizumab compositions at different molar ratios; format: cell-based, human; conditions: 89WP:Ranibizumab molar ratio 5:1 to 18:1; 3 kinds of cells; 1 μM Cy5-Rani; 2 h, 37° C.
Experimental: First, Ranibizumab was fluorescently labeled. […] After the addition of 0.12 mg fluorescence labeling reagent Sulfo-Cy5-NHS, the solution was stirred and reacted overnight under the condition of 4° C.
Next, a polypeptide/Ranibizumab composition was prepared. Appropriate amount of polypeptide was weighed and dissolved by using a certain volume of commercially available Ranibizumab injection.
Well-grown cells HCECs, ARPE-19 and HUVECs were taken and plated respectively in a 24-well plate at 1×10^4 cells/well. After incubating for 24 h, the culture solution was discarded, and solutions of different compositions of polypeptide/Cy5-Rani mixture (containing 1 μM of Cy5-Rani) were added and incubated for 2 h at 37° C. The drug solution was then discarded, and the cells were washed 3 times with 10 mM PBS (containing 0.02 mg/mL heparin sodium), collected, and resuspended in 10 mM PBS. Flow cytometer was used for detecting positive cell rate and mean fluorescence intensity, with detecting channel excitation wavelength of 638 nm and emission wavelength of 660 nm.
Significance analysis was performed using One-Way ANOVA test, corrected by Tukey's test (n=3, ^nsp>0.05, *p<0.05, **p<0.01, ***p<0.001).

ARPE-19 cells [7] = assay: Uptake of 89WP/nanoantibody compositions at different ratios, flow cytometry; format: cell-based, human; conditions: 89WP:nanoantibody molar ratio 5:1 to 50:1; 2 h
Experimental: 89WP/nanoantibody eye drops were prepared according to the proportion in Table 5, and incubated overnight at 4° C. for later use.
The ARPE-19 cells were plated in a 24-well plate and cultured for over 24 h. The culture solution was then discarded, and 200 μL of the drug solution and 300 μL of serum-free culture solution were added into each well. After 2 h of incubation, the drug solution was discarded, and the cells were washed 3 times with PBS, digested and resuspended in PBS. Flow cytometer was used for detecting Cy5 fluorescence signals (Ex: 645 nm, Em: 665 nm).

[8] = rabbit, in vivo; remark: listed apart in the source
Experimental: Firstly, eye drops were prepared. […] The compositions were stored at 4° C. for later use. Before being used, the compositions were incubated for at least 24 h at 4° C., and kept standing at room temperature for 1 h.
Subsequently, the administration and tissue sampling protocol were determined. Healthy male rabbits each about 1 kg were selected, eyes of which were ensured to be normal by ophthalmic examination before the experiment. The experimental process follows the ethical specifications of experimental animals. […] Ocular tissue samples were taken at 1 h, 4 h, 8 h, 12 h and 24 h after the administration.
The ELISA plate coated with antigen (hVEGF-A165) was prepared, as well as the extracted tissues (total protein extraction solution of blood plasma, aqueous humor, vitreous humor and retina).
Significant differences were analyzed by 1-tailed ANOVA, corrected by Tukey's test (^nsp>0.05, *p<0.05, **p<0.01, compared to the Rani group).

| Substance | increase of mean fluorescence intensity compared with free antibodies (ARPE-19 cells [4]) [times] | mean fluorescence intensity of cells, comparison between polypeptides (ARPE-19 cells [4]) | cell uptake of Ranibizumab mediated by polypeptide, comparison between polypeptides (ARPE-19 cells [4]) | increase of mean fluorescence intensity compared with free antibodies (HCECs [5]) [times] | mean fluorescence intensity of cells, comparison between polypeptides (HCECs [5]) | cell uptake of Ranibizumab mediated by polypeptide, comparison between polypeptides (HCECs [5]) | further results |
| --- | --- | --- | --- | --- | --- | --- | --- |
| Aflibercept |  |  |  |  |  |  | intraocular absorption after eye drop without penetratin derivative [1]: hardly absorbed |
| Cy5-Rani: Cy5-labeled Ranibizumab |  |  |  |  |  |  | cell uptake rate (ARPE-19 cells [2]; Dynasore added): 31.4%; cell uptake rate (ARPE-19 cells [2]; at 4° C.): 79.6%; cell uptake rate (ARPE-19 cells [2]; chlorpromazine added): 63.0%; cell uptake rate (ARPE-19 cells [2]; hypertonic sucrose added): 75.7%; cell uptake rate (HCECs [3]; Dynasore added): 24.4%; cell uptake rate (HCECs [3]; at 4° C.): 40.6%; cell uptake rate (HCECs [3]; chlorpromazine added): 37.8%; cell uptake rate (HCECs [3]; hypertonic sucrose added): 35.2% |
| Q2W, N9W-Penetratin (RWIKIWFQWRRMKWKK) [29WP] | 11.1 | still the highest | best effect | 13.5 | still the highest | strongest capacity; also recorded: best effect |  |
| Q2W, Q8W, N9W-Penetratin (RWIKIWFWWRRMKWKK) [289WP] | 11.3 | still the highest | best effect | 14.7 | still the highest | strongest capacity; also recorded: best effect |  |
| Q8W, N9W-Penetratin (RQIKIWFWWRRMKWKK) [89WP] |  |  |  |  |  |  | increase of 89WP-mediated uptake of antibody compared with free antibody [6]: 2.2-6.7 times; cell uptake of nanoantibody compared with nanoantibody alone (ARPE-19 cells [7]): significantly promote |
| Ranibizumab |  |  |  |  |  |  | intraocular absorption after eye drop without penetratin derivative [8]: hardly absorbed |
